Results from EP0377846A1, “Pharmaceutical mixture preparation containing nucleoside derivatives and pentosan polysulfate, and its manufacture and use” (HOECHST AKTIENGESELLSCHAFT, priority 1988, dated 1990).
In brackets after ≈: the same amount, converted by molar mass.

Test system: HIV 1
Assay: Inhibition of HIV-induced syncytium formation in cultures of human lymphocytes (test of preparations against HIV in cell culture, microscopic reading on day 4 after infection)
Format: cell-based
Settings: Human immunodeficiency virus 1, 96 h, footnote of Tabelle 1, AZT alone, read-out: MHK-Wert
Method: RPMI pH 6,8 Komplettes Medium enthält zusätzlich 20 % foetales Kälberserum und 20 IU/ml rekombinantes Interleukin 2.
Aus frischem Spenderblut mittels Ficoll^R-Gradientenzentrifugation isolierte Lymphozyten werden unter Zusatz von 2 µg/ml Phytohämagglutinin (Wellcome) in komplettem Medium 36 h bei 37°C unter 5 % CO₂ kultiviert. Die Zellen werden nach Zusatz von 10 % DMSO bei einer Zelldichte von 5 x 10⁶ eingefroren und in flüssigem Stickstoff gelagert. Für den Versuch werden die Zellen aufgetaut, in RPMI-Medium gewaschen und in komplettem Medium 3 - 4 Tage kultiviert.
Die Prüfpräparate werden in komplettem Medium gelöst, üblicherweise in einer Konzentration von 1,2 mg/ml. In 24er Multiwell-Schalen werden jeweils 0,5 ml komplettes Medium gegeben. Nach Zusatz von 0,1 ml des gelösten Präparates wird durch Übertragung von jeweils 0,1 ml das Präparat in einer geometrischen Verdünnungsreihe, […], verdünnt. Zu allen Ansätzen werden 0,4 ml einer Suspension mit 5 x 10⁵ Lymphozyten pro ml gegeben.
Die Ansätze werden mit 0,1 ml eines Überstandes von HIV 1 infizierten Lymphozyten versetzt, der so eingestellt ist, daß im Ansatz der cytopathogene Effekt nach 3 - 4 Tagen erkennbar ist. Die Multiplizität der infektiösen Einheit beträgt hierbei 0,01 - 0,02.
Der Versuchsansatz enhält damit folgende Komponenten in komplettem Medium [formula] […]

Cc1cn([C@H]2C[C@H](N=[N+]=[N-])[C@@H](CO)O2)c(=O)[nH]c1=O [3′-Azido-3′-deoxythymidin]
MIC: 0.1 µg/mL (≈ 0.374 µM)
